From PubChem BioAssay AID248 (DTP/NCI, 2004) come the findings set out here.

The test system of this experiment is L1210 leukemia ip in BDF1 mice, survival T/C. The experiment can be described thus: NCI In Vivo Anticancer Drug Screen. Data for tumor model L1210 Leukemia (intraperitoneal) in B6D2F1 (BDF1) mice. The settings on record: endpoint: mean survival time, higher = longer survival. An outline of the steps:
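Survival endpoint. Drug-treated group vs vehicle group, expressed as T divided by C. Tumor passaged by transplantation.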

Where [1] appears, read: dose: 25.0 mg/kg/injection, schedule: Q01DX009 (ip), vehicle: saline with Tween-80.
Setting [2] is: dose: 50.0 mg/kg/injection, schedule: Q01DX009 (ip), vehicle: saline with Tween-80.
Where [3] appears, read: dose: 50.0 mg/kg/injection, schedule: Q04DX002 (ip), vehicle: Klucel (hydroxypropylcellulose) (HPC).
The mark [4] stands for this setting: dose: 100.0 mg/kg/injection, schedule: Q04DX002 (ip), vehicle: Klucel (hydroxypropylcellulose) (HPC).
[5] abbreviates: dose: 100.0 mg/kg/injection, schedule: Q01DX001 (ip), vehicle: saline.
The mark [6] stands for this setting: dose: 200.0 mg/kg/injection, schedule: Q01DX001 (ip), vehicle: saline.
The mark [7] stands for this setting: dose: 400.0 mg/kg/injection, schedule: Q01DX001 (ip), vehicle: saline.
[8] abbreviates: dose: 100.0 mg/kg/injection, schedule: Q01DX009 (ip), vehicle: saline with Tween-80.
Where [9] appears, read: dose: 100.0 mg/kg/injection, schedule: Q04DX003 (ip), vehicle: saline with Tween-80.
Where [10] appears, read: dose: 200.0 mg/kg/injection, schedule: Q01DX009 (ip), vehicle: saline with Tween-80.
The mark [11] stands for this setting: dose: 200.0 mg/kg/injection, schedule: Q04DX003 (ip), vehicle: saline with Tween-80.
Setting [12] is: dose: 400.0 mg/kg/injection, schedule: Q01DX009 (ip), vehicle: saline with Tween-80.
Where [13] appears, read: dose: 400.0 mg/kg/injection, schedule: Q04DX003 (ip), vehicle: saline with Tween-80.
[14] abbreviates: dose: 50.0 mg/kg/injection, schedule: Q01DX001 (ip), vehicle: saline.

Structures are written as SMILES. “And” between values parts separate entries of the source, which are not always exact repeats. Equal entries are not always repeated. Inconclusive results and toxic doses are left out.

For the molecule `[Cu+2].[NH-]c1ccccc1C(=O)O.[NH-]c1ccccc1C(=O)O`, the T/C is 101 % of control (dose: 12.5 mg/kg/injection, schedule: Q01DX009 (ip), vehicle: saline with Tween-80); 97 % of control (dose: 12.5 mg/kg/injection, schedule: Q04DX003 (ip), vehicle: saline with Tween-80); 101 % of control under setting [1]; 97 % of control (dose: 25.0 mg/kg/injection, schedule: Q04DX003 (ip), vehicle: saline with Tween-80); 88 % of control under setting [2]; 90 % of control (dose: 50.0 mg/kg/injection, schedule: Q04DX003 (ip), vehicle: saline with Tween-80).

For the molecule `CC(C)=NNc1ccc([N+](=O)[O-])cc1[N+](=O)[O-]`, the T/C is 100 % of control under setting [3]; 94 % of control and 107 % of control under setting [4]; 102 % of control (dose: 200.0 mg/kg/injection, schedule: Q04DX002 (ip), vehicle: Klucel (hydroxypropylcellulose) (HPC)); 100 % of control and 105 % of control (dose: 400.0 mg/kg/injection, schedule: Q04DX002 (ip), vehicle: Klucel (hydroxypropylcellulose) (HPC)).

Take `COC(=O)C1(C(=O)OC)C2CC=C(C)CC21` (centres undefined): the T/C is, setting by setting: (dose: 100.0 mg/kg/injection, schedule: Q01DX009 (ip), vehicle: acetone) 100 % of control; (dose: 200.0 mg/kg/injection, schedule: Q01DX009 (ip), vehicle: acetone) 98 % of control; (dose: 400.0 mg/kg/injection, schedule: Q01DX009 (ip), vehicle: acetone) 90 % of control.

Consider `C/C(=C\COC1CCCCO1)CCC1OC1(C)C` (centres undefined), for which the T/C runs as follows: under setting [5], 103 % of control; (dose: 100.0 mg/kg/injection, schedule: Q01DX009 (ip), vehicle: saline) 108 % of control; under setting [6], 100 % of control; (dose: 200.0 mg/kg/injection, schedule: Q01DX009 (ip), vehicle: saline) 98 % of control; under setting [7], 100 % of control; (dose: 400.0 mg/kg/injection, schedule: Q01DX009 (ip), vehicle: saline) 101 % of control.

Regarding `O=C1NC2NC(=O)NC2N1` (centres undefined), the T/C is, setting by setting: under setting [8], 98 % of control; under setting [9], 112 % of control; under setting [10], 115 % of control; under setting [11], 98 % of control; under setting [12], 96 % of control; under setting [13], 101 % of control.

For `O=C(Cc1ccccc1)NC1=C(NCc2ccccc2)C(=O)c2ccccc2C1=O`, the T/C under setting [9] was 105 % of control, the T/C under setting [11] was 98 % of control and the T/C under setting [13] was 96 % of control.

For `COc1cc(NC(=O)c2ccc(Cl)cc2Cl)c(OC)cc1Cl`, the T/C is 90 % of control under setting [2], 90 % of control under setting [8] and 96 % of control under setting [10].

As to `C1C2C1C1C3C2C2C4C5CC5C5C2C1C1C5C4C31` (centres undefined), the T/C runs as follows: under setting [14], 106 % of control; under setting [5], 112 % of control; under setting [6], 122 % of control; under setting [7], 106 % of control.

Take `COc1ccc(NC(=O)Oc2ccc3c(C)cc(=O)oc3c2)c(OC)c1`: the T/C is, setting by setting: under setting [8], 106 % of control; under setting [9], 101 % of control; under setting [10], 106 % of control; under setting [11], 116 % of control; under setting [12], 118 % of control; under setting [13], 106 % of control.

On to `O=C(CC1(Cl)C(F)(F)C(F)(F)C1(F)F)c1ccccc1`, for which the T/C is 94 % of control (dose: 6.25 mg/kg/injection, schedule: Q01DX009 (ip), vehicle: saline); 94 % of control (dose: 12.5 mg/kg/injection, schedule: Q01DX009 (ip), vehicle: saline); 94 % of control under setting [1]; 100 % of control (dose: 25.0 mg/kg/injection, schedule: Q01DX009 (ip), vehicle: saline).

With `CSc1nc(NN(C)C)c2[nH]c(C)nc2n1`, the T/C by setting is: under setting [5], 92 % of control; under setting [6], 97 % of control.

Consider `CC1(C)OC2OC(C(O)CO)C(O)C2O1` (centres undefined) (tested in a mixture with another compound), for which the T/C (dose: 12.5 mg/kg/injection, schedule: Q04DX002 (ip), vehicle: saline) was 100 % of control; the T/C (dose: 25.0 mg/kg/injection, schedule: Q04DX002 (ip), vehicle: saline) was 95 % of control; the T/C (dose: 50.0 mg/kg/injection, schedule: Q04DX002 (ip), vehicle: saline) is 95 % of control.

Turning to `O=C(O)CCBr`, the T/C under setting [5] was 93 % of control and the T/C under setting [6] was 104 % of control.

On to `CC1=CCC(=O)O1`, for which the T/C is 100 % of control under setting [14]; 94 % of control under setting [2]; 100 % of control under setting [5]; 97 % of control under setting [8]; 97 % of control under setting [6]; 94 % of control under setting [10]. Besides, under setting [7], the T/C is 97 % of control.

In the case of `CC(=O)OCC1OC(n2cnc3c(=S)nc(N)[nH]c32)C(OC(C)=O)C1OC(C)=O` (centres undefined), the T/C (dose: 1.6 mg/kg/injection, schedule: Q01DX Z (ip), vehicle: carboxymethylcellulose (CMC)) is 106 % of control; the T/C (dose: 5.0 mg/kg/injection, schedule: Q01DX Z (ip), vehicle: carboxymethylcellulose (CMC)) is 162 % of control; the T/C (dose: 6.25 mg/kg/injection, schedule: Q01DX Z (oral), vehicle: other) was 94 % of control; the T/C (dose: 7.5 mg/kg/injection, schedule: Q01DX Z (ip), vehicle: carboxymethylcellulose (CMC)) is 162 % of control; the T/C (dose: 11.2 mg/kg/injection, schedule: Q01DX Z (ip), vehicle: carboxymethylcellulose (CMC)) is 176 % of control; the T/C (dose: 12.5 mg/kg/injection, schedule: Q01DX Z (oral), vehicle: other) was 106 % of control. The T/C is 105 % of control (dose: 25.0 mg/kg/injection, schedule: Q01DX Z (oral), vehicle: other); 86 % of control (dose: 44.0 mg/kg/injection, schedule: Q01DX Z (ip), vehicle: carboxymethylcellulose (CMC)); 100 % of control under setting [14]; 122 % of control (dose: 50.0 mg/kg/injection, schedule: Q01DX Z (oral), vehicle: other); 123 % of control under setting [5]; 120 % of control (dose: 150.0 mg/kg/injection, schedule: Q01DX015 (oral), vehicle: other). The T/C under setting [6] was 103 % of control; the T/C (dose: 200.0 mg/kg/injection, schedule: Q01DX015 (oral), vehicle: other) is 97 % of control; the T/C (dose: 250.0 mg/kg/injection, schedule: Q01DX015 (oral), vehicle: other) was 94 % of control.

Turning to `COc1ccc(CCNC2CC3CCC2(C)C3(C)C)cc1OC` (centres undefined), the T/C is 100 % of control and 107 % of control under setting [5]; 96 % of control under setting [6]; 96 % of control under setting [7].

For `CCOC(=O)CCC(=O)N(C)CCc1ccc(OC)c(OC)c1`, the T/C is, setting by setting: (dose: 25.0 mg/kg/injection, schedule: Q04DX002 (ip), vehicle: Klucel (hydroxypropylcellulose) (HPC)) 117 % of control; under setting [3], 101 % of control; under setting [4], 101 % of control.

As for `COC1OCC2OC(C)(C)OC2C1OS(C)(=O)=O` (centres undefined), the T/C runs as follows: under setting [5], 107 % of control; under setting [6], 112 % of control; under setting [7], 97 % of control.

As to `CCCCNC(C)(C)C(SSS(=O)(=O)O)c1ccc(Cl)cc1` (centres undefined), the T/C by setting is: under setting [8], 96 % of control; under setting [10], 103 % of control; under setting [12], 92 % of control.

As to `O=NN1C(=O)N(CCCl)C(=O)C1(c1ccccc1)c1ccccc1`, the T/C reads like this: (dose: 100.0 mg/kg/injection, schedule: Q04DX003 (ip), vehicle: saline) 96 % of control; (dose: 200.0 mg/kg/injection, schedule: Q04DX003 (ip), vehicle: saline) 97 % of control; (dose: 400.0 mg/kg/injection, schedule: Q04DX003 (ip), vehicle: saline) 102 % of control.

Turning to `Nc1ccc(C(=O)O)c(O)c1.Nc1ccc(C(=O)O)c(O)c1.[Na+].[O]=[V]`, the T/C reads like this: (dose: 2.0 mg/kg/injection, schedule: Q01DX015 (ip), vehicle: carboxymethylcellulose (CMC)) 98 % of control; (dose: 4.0 mg/kg/injection, schedule: Q01DX015 (ip), vehicle: carboxymethylcellulose (CMC)) 93 % of control; (dose: 8.0 mg/kg/injection, schedule: Q01DX015 (ip), vehicle: carboxymethylcellulose (CMC)) 100 % of control; (dose: 16.0 mg/kg/injection, schedule: Q01DX015 (ip), vehicle: carboxymethylcellulose (CMC)) 110 % of control and 113 % of control; (dose: 32.0 mg/kg/injection, schedule: Q01DX015 (ip), vehicle: carboxymethylcellulose (CMC)) 101 % of control.
